Results reported in US20250129103A1, “METHODS FOR TREATMENT OF CANCER” (Frontier Medicines Corporation, priority 2022, published 2025).
Converted amounts (≈) assume the structure as drawn.

Columns and labels:
[1] = molecular target: KRAS G12C (GMPPNP-loaded) and cRAF (Ras-binding domain) interaction (Homo sapiens (Human), UniProt P01116, C118S/C51S/C80L/G12C); assay: Inhibition of KRAS G12C and cRAF binding (AlphaScreen); conditions: KRAS G12C loaded with GMPPNP, cRaf RBD, 2 hours preincubation; read-out: Raf-1 RBD K-Ras IC50
Outline: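 GMPPNP-loaded KRAS G12C in 25 mM Hepes pH 7.4, 150 mM NaCl, 5 mM MgCl2, 0.01% Triton X-100, 10 μM GMPPNP, 2% DMSO, preincubated with compound 2 h at room temperature. cRAF RBD plus AlphaScreen beads then added for 60-90 min; signal read at 570 nm.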

[2] = molecular target: KRAS G12C (GMPPNP-loaded) and PI3Ka (Ras-binding domain) interaction (Homo sapiens (Human), UniProt P01116, C118S/C51S/C80L/G12C); assay: Inhibition of KRAS G12C and PI3Ka binding (AlphaScreen); conditions: KRAS G12C loaded with GMPPNP, PI3Ka RBD, 2 hours preincubation; read-out: PI3K RBD K-Ras IC50
Outline: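 Biotin-AviTag Cys-light KRAS G12C (aa 1-169, C51S/C80L/C118S), GMPPNP-loaded, 1.5 nM, preincubated 2 h with compound, then His-tagged PI3Ka RBD (aa 157-300, 100 nM) plus AlphaScreen beads added for 60-90 min, RT. Buffer Hepes pH 7.4, 10 μM GMPPNP, 2% DMSO; 10-point 1:3 from 50 μM; 4-parameter IC50.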

[3] = Determination of logD (1-octanol / phosphate buffer pH 7.4); type: physicochemical; conditions: 1-octanol/phosphate buffer, pH 7.4, pH 7.4, 1-octanol/phosphate buffer; read-out: Log D, pH 7.4
Outline: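 Shake-flask partition between 1-octanol and 100 mM phosphate buffer pH 7.4, each phase presaturated with the other overnight. Tubes shaken 1 h at 800 rpm, room temperature, then centrifuged. Both phases quantified by LCMS and logD calculated from the ratio.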

[4] = Determination of kinetic solubility (pH 7.4); type: physicochemical; conditions: phosphate buffer, pH 7.4, aqueous buffer, kinetic from dmso stock, 50 mM phosphate buffer pH 7.4, read-out: Ksol, pH 7.4
Outline: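 Sample mixed with 50 mM phosphate buffer, pH 7.4, vortexed, then shaken 2 h at room temperature and centrifuged. Filtrate analysed by HPLC-UV and LC-MS/MS, with solubility read from peak areas against a standard calibration curve.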

Sequence of KRAS G12C (GMPPNP-loaded) and cRAF (Ras-binding domain) interaction (P01116 other isoform, or with tags, fused parts or gaps G12C/C51S/C80L/C118S): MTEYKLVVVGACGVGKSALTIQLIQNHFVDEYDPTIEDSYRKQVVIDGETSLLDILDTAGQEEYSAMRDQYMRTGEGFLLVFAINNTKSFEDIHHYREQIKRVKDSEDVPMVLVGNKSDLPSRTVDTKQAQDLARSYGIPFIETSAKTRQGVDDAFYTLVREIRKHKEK
Sequence of KRAS G12C (GMPPNP-loaded) and PI3Ka (Ras-binding domain) interaction (P01116 other isoform, or with tags, fused parts or gaps G12C/C51S/C80L/C118S): as above

Row | SMILES | IC50 [1] [nM] | IC50 [2] [nM] | logD [3] | solubility kinetic at 2 h [4] [µg/mL]
1 | CO[C@@H]1CCN(C/C=C/C(=O)N2CCN(c3nc(OC[C@@]45CCCN4C[C@H](F)C5)nc4c(F)c(-c5cccc6ccc(F)c(Cl)c56)ncc34)C[C@@H]2CC#N)C1 [Example 85, 2-((S)-4-(7-(8-chloro-7-fluoronaphthalen-1-yl)-8-fluoro-2-(((2R,7aS)-2-fluorotetrahydro-1H-pyrrolizin-7a(5H)-yl)methoxy)pyrido[4,3-d]pyrimidin-4-yl)-1-((E)-4-((R)-3-methoxypyrrolidin-1-yl)but-2-enoyl)piperazin-2-yl)acetonitrile] | < 10 | < 10 | 2.97 | 85.5 (≈ 110 µM)
2 | N#CC[C@H]1CN(c2nc(OC[C@@]34CCCN3C[C@H](F)C4)nc3c(F)c(-c4cccc5cccc(Cl)c45)ncc23)CCN1C(=O)/C=C/CN1CC2CC(C1)O2 [Example 86, 2-((2S)-1-((E)-4-(6-oxa-3-azabicyclo[3.1.1]heptan-3-yl)but-2-enoyl)-4-(7-(8-chloronaphthalen-1-yl)-8-fluoro-2-(((2R,7aS)-2-fluorohexahydro-1H-pyrrolizin-7a-yl)methoxy)pyrido[4,3-d]pyrimidin-4-yl)piperazin-2-yl)acetonitrile] | < 10 | < 10 | 2.9 | 96.6 (≈ 128 µM)
3 | N#CC[C@H]1CN(c2nc(OC[C@@]34CCCN3C[C@H](F)C4)nc3c(F)c(-c4cccc5cccc(Cl)c45)ncc23)CCN1C(=O)/C=C/CN1[C@@H]2CC[C@H]1COC2 [Example 87, 2-((S)-1-((E)-4-((1R,5S)-3-oxa-8-azabicyclo[3.2.1]octan-8-yl)but-2-enoyl)-4-(7-(8-chloronaphthalen-1-yl)-8-fluoro-2-(((2R,7aS)-2-fluorohexahydro-1H-pyrrolizin-7a-yl)methoxy)pyrido[4,3-d]pyrimidin-4-yl)piperazin-2-yl)acetonitrile] | < 10 | < 10 | 3.27 | 69.8 (≈ 90.7 µM)

Now from value to compound:

Row | IC50 [1] [nM] | IC50 [2] [nM] | logD [3] | solubility kinetic at 2 h [4] [µg/mL] | SMILES
4 | < 10 | < 10 | 4.55 | 45.9 (≈ 59.7 µM) | CCc1nccc(/C=C/C(=O)N2CCN(c3nc(OC[C@@]45CCCN4C[C@H](F)C5)nc4c(F)c(-c5cccc6ccc(F)c(Cl)c56)ncc34)C[C@@H]2CC#N)n1 [Example 88, 2-((S)-4-(7-(8-chloro-7-fluoronaphthalen-1-yl)-8-fluoro-2-(((2R,7aS)-2-fluorotetrahydro-1H-pyrrolizin-7a(5H)-yl)methoxy)pyrido[4,3-d]pyrimidin-4-yl)-1-((E)-3-(2-ethylpyrimidin-4-yl)acryloyl)piperazin-2-yl)acetonitrile]
5 | < 10 | < 10 | 3.99 | 0.03 (≈ 0.0391 µM) | Cc1cc(/C=C/C(=O)N2CCN(c3nc(OC[C@@]45CCCN4C[C@H](F)C5)nc4c(F)c(-c5cccc6ccc(F)c(Cl)c56)ncc34)C[C@@H]2CC#N)nc(C)n1 [Example 89, 2-((S)-4-(7-(8-chloro-7-fluoronaphthalen-1-yl)-8-fluoro-2-(((2R,7aS)-2-fluorotetrahydro-1H-pyrrolizin-7a(5H)-yl)methoxy)pyrido[4,3-d]pyrimidin-4-yl)-1-((E)-3-(2,6-dimethylpyrimidin-4-yl)acryloyl)piperazin-2-yl)acetonitrile]
6 | 10 to 100 | < 10 | 3.77 | 5.26 (≈ 7 µM) | Cc1cc(/C=C/C(=O)N2CCN(c3nc(OC[C@@]45CCCN4C[C@H](F)C5)nc4c(F)c(-c5cccc6ccc(F)c(F)c56)ncc34)C[C@@H]2CC#N)nc(C)n1 [Example 90, 2-((S)-4-(7-(7,8-difluoronaphthalen-1-yl)-8-fluoro-2-(((2R,7aS)-2-fluorotetrahydro-1H-pyrrolizin-7a(5H)-yl)methoxy)pyrido[4,3-d]pyrimidin-4-yl)-1-((E)-3-(2,6-dimethylpyrimidin-4-yl)acryloyl)piperazin-2-yl)acetonitrile]
